Laboratory results reported in patent US20250368633A1, “AZEPINE FUSED RING COMPOUND AS RIPK1 INHIBITOR AND USE THEREOF” (ARTIVILA BIOPHARMA, priority 2022, published 2025).

Key:
RIPK1 kinase = target: T1, RIPK1 kinase (Homo sapiens, UniProt Q13546); test: In vitro RIPK1 kinase activity assay (ADP-Glo), inhibition by compounds at 1 μM; format: biochemical; conditions: compound 1 μM; ATP 10 μM; MBP substrate 100 μg/mL; read-out: RIPK1 kinase activity inhibition rate range
T1 construct: purchased Promega VA7593
T1 sequence (Q13546 1-671): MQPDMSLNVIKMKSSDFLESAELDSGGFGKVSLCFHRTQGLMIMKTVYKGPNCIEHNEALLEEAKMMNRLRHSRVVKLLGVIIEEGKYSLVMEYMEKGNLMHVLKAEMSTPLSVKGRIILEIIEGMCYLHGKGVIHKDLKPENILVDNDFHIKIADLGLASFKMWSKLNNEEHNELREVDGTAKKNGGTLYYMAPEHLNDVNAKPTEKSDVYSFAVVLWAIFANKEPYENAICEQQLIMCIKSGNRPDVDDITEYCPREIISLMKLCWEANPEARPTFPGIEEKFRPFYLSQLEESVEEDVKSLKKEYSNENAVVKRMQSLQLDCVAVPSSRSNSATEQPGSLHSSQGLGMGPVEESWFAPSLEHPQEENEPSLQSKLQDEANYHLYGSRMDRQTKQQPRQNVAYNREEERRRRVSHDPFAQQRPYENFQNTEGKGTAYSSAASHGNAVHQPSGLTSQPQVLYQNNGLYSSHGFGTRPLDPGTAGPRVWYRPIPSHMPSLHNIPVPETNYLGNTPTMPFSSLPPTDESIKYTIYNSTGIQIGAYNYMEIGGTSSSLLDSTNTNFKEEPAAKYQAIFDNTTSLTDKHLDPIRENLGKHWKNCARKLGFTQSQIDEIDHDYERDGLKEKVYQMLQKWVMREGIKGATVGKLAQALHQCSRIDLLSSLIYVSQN
Protocol: RIPK1 kinase activity was assayed using the ADP-Glo assay and RIPK1 kinase reaction system (Promega, catalog number: VA7593). The RIPK1 kinase activity assay was performed according to the Promega kit manual.
The experimental method was briefly described as below. The concentration of RIPK1 kinase in the RIPK1 kinase reaction system was determined by kinase titration and S/B10. Compounds were diluted with 1× kinase buffer D (1% DMSO), and 1 μL of 100 μM compound DMSO stock solution was added to 19 μL 1× kinase buffer D. RIPK1 kinase was diluted with 1× kinase buffer D. 2.5×ATP/substrate was diluted with 1× kinase buffer D. The final concentration of ATP in the kinase reaction system was 10 μM, and the final concentration of MBP substrate was 100 μg/mL. 1 μL of diluted compound and 2 μL of diluted RIPK1 kinase were mixed, incubated at room temperature for 15 minutes, 2 μL of 2.5×ATP/substrate was added, mixed, and incubated at room temperature for 1 hour. 5 μL of ADP-Glo reagent was added to each well and incubated at room temperature for 1 hour. 10 μL of ADP detection reagent was added to each well and incubated at room temperature for another 0.5-1 hour. The chemiluminescent signal was read by a microplate reader and the inhibition rate of kinase activity was calculated.

U937 cells [1] = test: Inhibition rate of compound (1 μM) on necroptosis of U937 cells (TSZ-induced, CellTiter-Glo); format: cell-based; conditions: TSZ (hTNF-α, SM-164, Z-VAD-FMK) 20 hours
Protocol: (§1) The biological activity of RIPK1 inhibitors was further evaluated in the inhibition of necroptosis in U937 cells. U937 cell line was purchased from Huatuo Biotechnology and stored in liquid nitrogen. U937 cells were revived before the experiment and cultured in RPMI-1640 medium (supplemented with 10% fetal bovine serum, 100 U/mL penicillin and 100 μg/mL streptomycin) at 37° C., 5% CO2. The activity was further evaluated by the cellular ATP level detected by the Promega CellTiter-Glo 2.0 Assay cell viability assay kit (Catalog No.: G9242).
The experimental method was briefly described as below. U937 cells in the logarithmic growth phase were collected by centrifugation. Cells were diluted at the density of 5×10^5 cells/mL with RPMI 1640 medium (supplemented with 10% fetal bovine serum, 100 U/mL penicillin and 100 μg/mL streptomycin). The cell suspension was added to a white sterile 384-well cell culture plate at 15 μL/well. The test compound was dissolved in DMSO to prepare a 10 mM stock solution and diluted to 10 μM with culture medium. At the same time, a control with the same DMSO volume was set up. Two replicates were added for each concentration. The diluted compound was added to the 384-well cell culture plate containing cells at 2.5 µL/well and incubated at 37° C., 5% CO2 for 15 minutes. Z-VAD-FMK (Biyuntian, catalog number: C1202-5 mg) was dissolved in DMSO to prepare a 20 mM stock solution. SM-164 (Biyuntian, catalog number: SC0114-10 mM) was dissolved in DMSO to prepare a 10 mM stock solution and diluted to 0.1 mM. hTNF-α (Sino Biological Inc., catalog number: 10602-HNAE) was dissolved in sterile water to 10 μg/mL. RPMI 1640 medium (supplemented with 10% fetal bovine serum, 100 U/mL penicillin and 100 μg/mL streptomycin) was used to prepare the TSZ mixture, containing 133.3 μM Z-VAD-FMK, 33.3 ng/ml hTNF-α and 0.3 μM SM-164. After 15 minutes' coculture of compounds and cells, 7.5 μL of TSZ mixture was added to each well, mixed evenly, and cultured at 37° C., 5% CO2 for 20 hours. After 20 hours, the culture plate was removed and placed at room temperature for 30 minutes. 10 μL of CellTiter-Glo reagent pre-equilibrated at room temperature was added to each well and incubated for 10 minutes from light. The chemiluminescence was read by a microplate reader. The inhibition rate was calculated as Inh %=(1−(no TSZ-TSZ & compound)/(no TSZ-TSZ))×100.

U937 cells [2] = test: EC50 of necroptosis inhibition in U937 cells (TSZ-induced, CellTiter-Glo); format: cell-based; conditions: Homo sapiens, U-937; TSZ (hTNF-α, SM-164, Z-VAD-FMK) 20 hours; 10 concentration points; read-out: EC50 intervals of necroptosis inhibition in U937 cells
Protocol: as §1
The experimental method was briefly described as below. U937 cells in the logarithmic growth phase were collected by centrifugation. Cells were diluted to the cell density of 5×10^5 cells/mL with RPMI 1640 medium (supplemented with 10% fetal bovine serum, 100 U/mL penicillin and 100 μg/mL streptomycin). Cell suspension was added to a white sterile 384-well cell culture plate at 15 μL/well. The test compound was dissolved in DMSO to prepare a 10 mM stock solution. The compound was serially diluted with culture medium at a ratio of 1:3, for a total of 10 concentration points. A control with the same DMSO volume was set, with two replicates for each concentration. The diluted compound was added to the 384-well cell culture plate containing cells at 2.5 μL/well and incubated at 37° C., 5% CO2 for 15 minutes. Z-VAD-FMK (Biyuntian, catalog number: C1202-5 mg) was dissolved in DMSO to prepare a 20 mM stock solution. SM-164 (Biyuntian, catalog number: SC0114-10 mM) was dissolved in DMSO to prepare a 10 mM stock solution and diluted to 0.1 mM. hTNF-α (Sino Biological Inc., catalog number: 10602-HNAE) was dissolved in sterile water to 10 μg/mL. RPMI 1640 medium (supplemented with 10% fetal bovine serum, 100 U/mL penicillin and 100 μg/mL streptomycin) was used to prepare the TSZ mixture, containing 133.3 μM Z-VAD-FMK, 33.3 ng/ml hTNF-α and 0.3 μM SM-164. After 15 minutes' coculture of compounds and cells, 7.5 μL of TSZ mixture was added to each well, mixed evenly, and cultured at 37° C., 5% CO2 for 20 hours. After 20 hours, the culture plate was removed and placed at room temperature for 30 minutes. Then, 10 μL of CellTiter-Glo reagent pre-equilibrated at room temperature was added to each well and incubated. After 10 minutes' incubation at room temperature in the dark, the chemiluminescence were measured using a microplate reader. The inhibition rate was calculated as Inh %=(1−(no TSZ-TSZ & compound)/(no TSZ-TSZ))×100. The EC50 was obtained by fitting the nonlinear regression curve log [inhibitor] vs. response−variable slope (four parameters) in GraphPad Prism.

| Structure (SMILES) | inhibition at 1 µM (RIPK1 kinase) [%] | Inhibition rate range of compounds (1 μM) on U937 cell necroptosis (U937 cells [1]) | EC50 (U937 cells [2]) [µM] |
| --- | --- | --- | --- |
| CN1C(=O)[C@@H](NC(=O)C(=O)NCCc2ccccc2)COc2ccc(C#CC3CCN(CCOCCOCC(=O)O)CC3)cc21 [Example 54, (S)-1-(2-(2-(carboxymethoxy)ethoxy)ethyl)-4-((5-methyl-4-oxo-3-(2-oxo-2-(phenethylamino)acetamido)-2,3,4,5-tetrahydrobenzo[b][1,4]oxazepin-7-yl)ethynyl)piperidin-1-ium 2,2,2-trifluoroacetate] | 50 to 74 | B (B: 50-89%) | 0.5 to 2 |
| CN1C(=O)[C@@H](NC(=O)C(=O)NCCc2ccccc2)COc2ccc(C#CC3CCN(CCOCCOCC(=O)Nc4cccc5c4CN(C4CCC(=O)NC4=O)C5=O)CC3)cc21 (stereo partly drawn) [Example 56, N^1-((3S)-7-((1-(2-(2-(2-(2-(2,6-dioxopiperidin-3-yl)-(1-oxoisoindolin-4-yl)amino)-2-oxoethoxy)ethoxy)ethyl)piperidin-4-yl)ethynyl)-5-methyl-4-oxo-2,3,4,5-tetrahydrobenzo[b][1,4]oxazepin-3-yl)-N^2-phenethyloxalamide] | 25 to 49 | A (A: ≥90%) | < 0.1 |
| CN1C(=O)[C@@H](NC(=O)C(=O)NCCc2ccccc2)COc2ccc(C#Cc3cc(F)cc(F)c3)cc21 [Example 27, (S)—N^1-(7-((3,5-difluorophenyl)ethynyl)-5-methyl-4-oxo-2,3,4,5-tetrahydrobenzo[b][1,4]oxazepin-3-yl)-N^2-phenethyloxalamide] | 50 to 74 | A (A: ≥90%) | < 0.1 |
| CN1C(=O)[C@@H](NC(=O)C(=O)NCCc2ccccc2)COc2ccc(C#CC3CCNCC3)cc21 [Example 23, (S)—N^1-(5-methyl-4-oxo-7-(piperidin-4-ylethynyl)-2,3,4,5-tetrahydrobenzo[b][1,4]oxazepin-3-yl)-N^2-phenethyloxalamide] | 50 to 74 | A (A: ≥90%) | < 0.1 |

Further lines, with some results ahead:

| inhibition at 1 µM (RIPK1 kinase) [%] | Structure (SMILES) | Inhibition rate range of compounds (1 μM) on U937 cell necroptosis (U937 cells [1]) | EC50 (U937 cells [2]) [µM] |
| --- | --- | --- | --- |
| ≥ 75 | CN1C(=O)C(NC(=O)C(=O)NCc2ccccc2)CCc2ccccc21 (stereo not drawn) [Example 68, N^1-benzyl-N^2-(1-methyl-2-oxo-2,3,4,5-tetrahydro-1H-benzo[b]azepin-3-yl)oxalamide] | B (B: 50-89%) | 0.5 to 2 |
| ≥ 75 | CN1C(=O)[C@@H](NC(=O)C(=O)NCCc2cccc(F)c2)COc2ccccc21 [Example 100, (S)—N^1-(3-fluorophenethyl)-N^2-(5-methyl-4-oxo-2,3,4,5-tetrahydrobenzo[b][1,4]oxazepin-3-yl)oxamalide] | B (B: 50-89%) | 0.1 to 0.5 |
| ≥ 75 | CN1C(=O)[C@@H](NC(=O)C(=O)NCCc2ccccc2)COc2ccc(C#CCN3CCN(CCO)CC3)cc21 [Example 83, (S)—N^1-(7-(3-(4-(2-hydroxyethyl)piperazin-1-yl)prop-1-yn-1-yl)-5-methyl-4-oxo-2,3,4,5-tetrahydrobenzo[b][1,4]oxazepin-3-yl)-N^2-phenethyloxalamide] | A (A: ≥90%) | < 0.1 |
| ≥ 75 | CN1C(=O)[C@@H](NC(=O)C(=O)NCCc2cccc(F)c2)COc2ccc(C#CCN3CCN(CCO)CC3)cc21 [Example 121, (S)—N^1-(3-fluorophenethyl)-N^2-(7-(3-(4-(2-hydroxyethyl)piperazin-1-yl)prop-1-yn-1-yl)-5-methyl-4-oxo-2,3,4,5-tetrahydrobenzo[b][1,4]oxazepin-3-yl)oxalamide] | B (B: 50-89%) | < 0.1 |
| 25 to 49 | CN1C(=O)C(NC(=O)C(=O)NCCc2ccccc2)CCc2cc(Br)ccc21 (stereo not drawn) [Example 63, N^1-(7-bromo-1-methyl-2-oxo-2,3,4,5-tetrahydro-1H-benzo[b]azepin-3-yl)-N^2-phenethyloxalamide] | A (A: ≥90%) | 0.1 to 0.5 |
| 50 to 74 | C[C@H](NC(=O)C(=O)N[C@H]1COc2ccc(C#CCCO)cc2N(C)C1=O)c1ccccc1 [Example 124, N^1-((S)-7-(4-hydroxybut-1-yn-1-yl)-5-methyl-4-oxo-2,3,4,5-tetrahydrobenzo[b][1,4]oxazepin-3-yl)-N^2-((S)-1-phenylethyl)oxalamide] | A (A: ≥90%) | 0.1 to 0.5 |
